Source: ChEMBL document CHEMBL1201862, “PubChem BioAssay data set” (2004)
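Protocol summary: plate cells (96-well), add compound at 5 concentrations, incubate 48 h, interpolate endpoints linearly. GI50 is the concentration that inhibits growth by half.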 Active and inactive are the calls of the source. No stated cut-off is given here; in the data, active = GI50 up to about 1.1 µM and inactive = higher.

What was measured:
Assay in all cases: inhibition of tumour cell growth, NCI panel, 48 h
[1] = tested on: 786-0
[2] = tested on: A498
[3] = tested on: A549
[4] = tested on: ACHN
[5] = tested on: CAKI-1
[6] = tested on: CCRF-CEM
[7] = tested on: COLO 205
[8] = tested on: DLD-1
[9] = tested on: DMS-114
[10] = tested on: DMS-273
[11] = tested on: HCC 2998
[12] = tested on: HCT-116
[13] = tested on: HCT-15
[14] = tested on: HL-60
[15] = tested on: HOP-62
[16] = tested on: HOP-92
[17] = tested on: HT-29
[18] = tested on: IGROV-1
[19] = tested on: K562
[20] = tested on: KM-20L2
[21] = tested on: KM12
[22] = tested on: LOX IMVI
[23] = tested on: LXFL 529
[24] = tested on: M14
[25] = tested on: M19-MEL
[26] = tested on: MOLT-4
[27] = tested on: Malme-3M
[28] = tested on: NCI-H226
[29] = tested on: NCI-H23
[30] = tested on: NCI-H460
[31] = tested on: NCI-H522
[32] = tested on: OVCAR-3
[33] = tested on: OVCAR-4
[34] = tested on: OVCAR-5
[35] = tested on: RPMI-8226
[36] = tested on: RXF 393
[37] = tested on: RXF 631
[38] = tested on: SF-268
[39] = tested on: SF-295
[40] = tested on: SF-539
[41] = tested on: SK-MEL-28
[42] = tested on: SK-MEL-2
[43] = tested on: SK-MEL-5
[44] = tested on: SK-OV-3
[45] = tested on: SN12C
[46] = tested on: SNB-19
[47] = tested on: SNB-75
[48] = tested on: SNB-78
[49] = tested on: SW-620
[50] = tested on: TK-10
[51] = tested on: U-251
[52] = tested on: UACC-257
[53] = tested on: UACC-62
[54] = tested on: UO-31
[55] = tested on: EKVX
[56] = tested on: HOP-18
[57] = tested on: OVCAR-8
[58] = tested on: SR

## O=C(CC1=Nc2nnc(-c3nnc4n3C(=O)C(CC(=O)c3cccnc3)=N4)n2C1=O)c1cccnc1
[1]
  GI50: > 100 µM (inactive)
[2]
  GI50: > 100 µM (inactive)
[3]
  GI50: > 100 µM (inactive)
[4]
  GI50: > 100 µM (inactive)
[5]
  GI50: > 100 µM (inactive)
[6]
  GI50: > 100 µM (inactive)
[7]
  GI50: > 100 µM (inactive)
[8]
  GI50: > 100 µM (inactive)
[9]
  GI50: > 100 µM (inactive)
[10]
  GI50: > 100 µM (inactive)
[11]
  GI50: > 100 µM (inactive)
[12]
  GI50: > 100 µM (inactive)
[13]
  GI50: > 100 µM
[14]
  GI50: > 100 µM (inactive)
[15]
  GI50: > 100 µM (inactive)
[16]
  GI50: > 100 µM (inactive)
[17]
  GI50: > 100 µM (inactive)
[18]
  GI50: > 100 µM (inactive)
[19]
  GI50: > 100 µM (inactive)
[20]
  GI50: > 100 µM (inactive)
[21]
  GI50: > 100 µM (inactive)
[22]
  GI50: > 100 µM (inactive)
[23]
  GI50: > 100 µM (inactive)
[24]
  GI50: > 100 µM (inactive)
[25]
  GI50: > 100 µM (inactive)
[26]
  GI50: > 100 µM (inactive)
[27]
  GI50: > 100 µM (inactive)
[28]
  GI50: > 100 µM (inactive)
[29]
  GI50: > 100 µM (inactive)
[30]
  GI50: > 100 µM (inactive)
[31]
  GI50: > 100 µM (inactive)
[32]
  GI50: > 100 µM (inactive)
[33]
  GI50: > 100 µM (inactive)
[34]
  GI50: > 100 µM (inactive)
[35]
  GI50: > 100 µM (inactive)
[36]
  GI50: > 100 µM (inactive)
[37]
  GI50: > 100 µM (inactive)
[38]
  GI50: > 100 µM (inactive)
[39]
  GI50: > 100 µM (inactive)
[40]
  GI50: > 100 µM (inactive)
[41]
  GI50: > 100 µM (inactive)
[42]
  GI50: > 100 µM (inactive)
[43]
  GI50: > 100 µM (inactive)
[44]
  GI50: > 100 µM (inactive)
[45]
  GI50: > 100 µM (inactive)
[46]
  GI50: > 100 µM (inactive)
[47]
  GI50: > 100 µM (inactive)
[48]
  GI50: > 100 µM (inactive)
[49]
  GI50: > 100 µM (inactive)
[50]
  GI50: > 100 µM (inactive)
[51]
  GI50: > 100 µM (inactive)
[52]
  GI50: > 100 µM (inactive)
[53]
  GI50: > 100 µM (inactive)
[54]
  GI50: > 100 µM (inactive)

## O=C(NCCNCCO)c1cccc2ccc(-c3ccccc3)nc12
[1]
  GI50: 6.87 µM (inactive)
[2]
  GI50: 1.8 µM (inactive)
[3]
  GI50: 2.93 µM (inactive)
[4]
  GI50: 2.26 µM (inactive)
[5]
  GI50: 3.38 µM (inactive)
[6]
  GI50: 3.4 µM (inactive)
[7]
  GI50: 3.1 µM (inactive)
[8]
  GI50: 3.41 µM (inactive)
[9]
  GI50: 7.52 µM (inactive)
[10]
  GI50: 3.86 µM (inactive)
[55]
  GI50: 5.94 µM (inactive)
[11]
  GI50: 5.01 µM (inactive)
[12]
  GI50: 2.73 µM (inactive)
[13]
  GI50: 3.8 µM
[14]
  GI50: 3.17 µM (inactive)
[56]
  GI50: 19 µM (inactive)
[15]
  GI50: 10.3 µM (inactive)
[16]
  GI50: 3.18 µM (inactive)
[17]
  GI50: 4.13 µM (inactive)
[18]
  GI50: 3.12 µM (inactive)
[19]
  GI50: 5.97 µM (inactive)
[21]
  GI50: 5.68 µM (inactive)
[22]
  GI50: 2.7 µM (inactive)
[24]
  GI50: 5.28 µM (inactive)
[25]
  GI50: 4.89 µM (inactive)
[26]
  GI50: 1.54 µM (inactive)
[28]
  GI50: 4.46 µM (inactive)
[29]
  GI50: 4.68 µM (inactive)
[30]
  GI50: 2.02 µM (inactive)
[32]
  GI50: 7.66 µM (inactive)
[33]
  GI50: 6.5 µM (inactive)
[34]
  GI50: 4.8 µM (inactive)
[57]
  GI50: 4.42 µM (inactive)
[36]
  GI50: 3.98 µM (inactive)
[37]
  GI50: 1.83 µM (inactive)
[38]
  GI50: 6.53 µM (inactive)
[39]
  GI50: 5.58 µM (inactive)
[40]
  GI50: 3.63 µM (inactive)
[41]
  GI50: 10.4 µM (inactive)
[42]
  GI50: 7.74 µM (inactive)
[43]
  GI50: 3.59 µM (inactive)
[44]
  GI50: 8.13 µM (inactive)
[45]
  GI50: 3.97 µM (inactive)
[46]
  GI50: 6.49 µM (inactive)
[47]
  GI50: 10.4 µM (inactive)
[48]
  GI50: 9.25 µM (inactive)
[49]
  GI50: 3.15 µM (inactive)
[50]
  GI50: 1.44 µM (inactive)
[51]
  GI50: 4.82 µM (inactive)
[52]
  GI50: 3.47 µM (inactive)
[53]
  GI50: 4.54 µM (inactive)
[54]
  GI50: 3.44 µM (inactive)

## Cc1c(C(=O)/C=C/c2ccc(Cl)cc2)[n+]([O-])c2ccccc2[n+]1[O-]
[1]
  GI50: 12.6 µM (inactive)
[2]
  GI50: 14.2 µM (inactive)
[3]
  GI50: 12.4 µM (inactive)
[4]
  GI50: 14.7 µM (inactive)
[5]
  GI50: 9.2 µM (inactive)
[6]
  GI50: 5.57 µM (inactive)
[7]
  GI50: 14.1 µM (inactive)
[8]
  GI50: 7.94 µM (inactive)
[9]
  GI50: 4.1 µM (inactive)
[10]
  GI50: 7.64 µM (inactive)
[55]
  GI50: 15.6 µM (inactive)
[11]
  GI50: 11.8 µM (inactive)
[12]
  GI50: 5.93 µM (inactive)
[13]
  GI50: 9.23 µM
[14]
  GI50: 5.92 µM (inactive)
[56]
  GI50: 20.6 µM (inactive)
[15]
  GI50: 26.5 µM (inactive)
[16]
  GI50: 15 µM (inactive)
[17]
  GI50: 12.9 µM (inactive)
[18]
  GI50: 11.8 µM (inactive)
[19]
  GI50: 4.6 µM (inactive)
[20]
  GI50: 7.11 µM (inactive)
[21]
  GI50: 10.8 µM (inactive)
[22]
  GI50: 7.28 µM (inactive)
[23]
  GI50: 9.08 µM (inactive)
[24]
  GI50: 15.6 µM (inactive)
[25]
  GI50: 15.2 µM (inactive)
[26]
  GI50: 13.8 µM (inactive)
[27]
  GI50: 19.6 µM (inactive)
[28]
  GI50: 16.4 µM (inactive)
[29]
  GI50: 10.4 µM (inactive)
[30]
  GI50: 11.3 µM (inactive)
[31]
  GI50: 3.78 µM (inactive)
[32]
  GI50: 12.5 µM (inactive)
[33]
  GI50: 10.5 µM (inactive)
[34]
  GI50: 15 µM (inactive)
[57]
  GI50: 11.2 µM (inactive)
[35]
  GI50: 11.1 µM (inactive)
[36]
  GI50: 4.18 µM (inactive)
[37]
  GI50: 34.5 µM (inactive)
[38]
  GI50: 14.7 µM (inactive)
[39]
  GI50: 12.2 µM (inactive)
[40]
  GI50: 12.1 µM (inactive)
[41]
  GI50: 17 µM (inactive)
[44]
  GI50: 21.2 µM (inactive)
[45]
  GI50: 7.1 µM (inactive)
[46]
  GI50: 14.4 µM (inactive)
[47]
  GI50: 15.3 µM (inactive)
[48]
  GI50: 22.1 µM (inactive)
[58]
  GI50: 19.3 µM (inactive)
[49]
  GI50: 8.69 µM (inactive)
[50]
  GI50: 18.2 µM (inactive)
[51]
  GI50: 12.9 µM (inactive)
[52]
  GI50: 15.8 µM (inactive)
[53]
  GI50: 12.6 µM (inactive)
[54]
  GI50: 16.1 µM (inactive)
